Assay results from patent publication US6150385A, “1,3,4-thiadiazoles useful for the treatment of CMV infections” (Pharmacia & Upjohn Company, priority 1999, dated 2000).

Molecular target: T1, HCMV polymerase (Human cytomegalovirus, UniProt P08546)
T1 construct: made in house; host or cells: SF-9 insect cells infected with recombinant baculovirus
Experiment: HCMV polymerase assay (scintillation proximity assay)
Format: biochemical
Conditions: percentage of inhibition at 25 μM concentration in CMV polymerase assay
Method: The compounds of the present invention are tested in an polymerase assay to show activity described below, which is indicative of a compound's activity and thus of its use as an anti-viral agent.
The HCMV polymerase assay is performed using a scintillation proximity assay (SPA) as described in several references, such as N. D. Cook, et al., Pharmaceutical Manufacturing International, pages 49-53 (1992); K. Takeuchi, Laboratory Practice, September issue (1992); U.S. Pat. No. 4,568,649 (1986); which are incorporated by reference herein. Reactions are performed in 96-well plates. The assay is conducted in 100 μl volume with 5.4 mM HEPES (pH 7.5), 11.7 mM KCl, 4.5 mM MgCl2, 0.36 mg/ml BSA, and 90 nM ^3 H-dTTP. Assays are run with and without CHAPS, (3-[(3-Cholamidopropyl)-dimethylammonio]-1-propanesulfonate) at a final concentration of 2 mM. HCMV is diluted in enzyme dilution buffer containing 50% glycerol, 250 mM NaCl, 10 mM HEPES (pH 7.5), 100 μg/ml BSA, and 0.01% sodium azide. The HCMV polymerase, which is expressed in recombinant baculovirus-infected SF-9 cells and purified according to literature procedures, is added at 10% (or 10 μl) of the final reaction volume, i.e., 100 μl. Compounds are diluted in 50% DMSO and 10 μl are added to each well. Control wells contain an equivalent concentration of DMSO. Unless noted otherwise, reactions are initiated via the addition of 6 nM biotinylated poly(dA)-oligo(dT) template/primer to reaction mixtures containing the enzyme, substrate, and compounds of interest. Plates are incubated in a 25° C. or 37° C. H2 O bath and terminated via the addition of 40 μl/reaction of 0.5 M EDTA (pH 8) per well. Reactions are terminated within the time-frame during which substrate incorporation is linear and varied depending upon the enzyme and conditions used, i.e., 30 min. for HCMV polymerase. Ten μl of streptavidin-SPA beads (20 mg/ml in PBS/10% glycerol) are added following termination of the reaction. Plates are incubated 10 min. at 37° C., then equilibrated to room temperature, and counted on a Packard Topcount.
In TABLE 1, "MS" refers to mass spectral data, "% inhib" refers to percentage of inhibition at 25 μM concentration in CMV polymerase assay.

T1 sequence (P08546 whole entry): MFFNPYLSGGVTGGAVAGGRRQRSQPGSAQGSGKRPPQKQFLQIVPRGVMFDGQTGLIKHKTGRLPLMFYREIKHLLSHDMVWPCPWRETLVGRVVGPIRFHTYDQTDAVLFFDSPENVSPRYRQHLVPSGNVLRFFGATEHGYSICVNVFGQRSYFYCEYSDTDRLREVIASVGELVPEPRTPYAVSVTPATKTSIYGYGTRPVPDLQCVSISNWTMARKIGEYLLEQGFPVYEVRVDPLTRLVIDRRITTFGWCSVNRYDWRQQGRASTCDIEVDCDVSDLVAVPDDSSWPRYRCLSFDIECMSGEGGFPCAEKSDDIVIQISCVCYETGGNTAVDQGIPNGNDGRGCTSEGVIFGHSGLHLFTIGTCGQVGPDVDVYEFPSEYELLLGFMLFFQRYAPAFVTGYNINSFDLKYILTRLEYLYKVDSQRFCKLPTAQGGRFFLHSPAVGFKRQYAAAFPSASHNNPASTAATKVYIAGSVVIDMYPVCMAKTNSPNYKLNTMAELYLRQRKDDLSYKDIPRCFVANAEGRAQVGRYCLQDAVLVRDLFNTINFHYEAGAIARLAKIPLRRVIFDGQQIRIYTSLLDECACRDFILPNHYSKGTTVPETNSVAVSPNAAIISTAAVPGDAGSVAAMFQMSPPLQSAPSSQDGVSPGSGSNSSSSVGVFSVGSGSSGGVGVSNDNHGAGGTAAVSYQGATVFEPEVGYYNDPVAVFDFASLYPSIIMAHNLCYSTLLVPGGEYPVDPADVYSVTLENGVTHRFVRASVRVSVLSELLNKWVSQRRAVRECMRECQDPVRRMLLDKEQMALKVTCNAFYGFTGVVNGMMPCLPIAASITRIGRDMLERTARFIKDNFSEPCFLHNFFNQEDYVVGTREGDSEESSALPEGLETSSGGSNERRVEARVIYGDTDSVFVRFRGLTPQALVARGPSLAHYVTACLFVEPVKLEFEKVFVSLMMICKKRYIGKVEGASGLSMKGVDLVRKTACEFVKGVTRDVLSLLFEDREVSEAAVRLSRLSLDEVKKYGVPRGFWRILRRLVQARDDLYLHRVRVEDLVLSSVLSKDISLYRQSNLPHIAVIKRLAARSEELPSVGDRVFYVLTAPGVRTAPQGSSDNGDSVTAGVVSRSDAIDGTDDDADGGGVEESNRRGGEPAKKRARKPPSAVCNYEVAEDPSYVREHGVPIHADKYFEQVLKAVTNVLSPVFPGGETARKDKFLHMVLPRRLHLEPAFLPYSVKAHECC

inhibition at 25 µM [%] | SMILES
98.8 | NS(=O)(=O)c1ccc(CCNc2nnc(NC(=O)c3ccc4c(c3)C(=O)OC4=O)s2)cc1 [compound 15, N-(5-{[4-(aminosulfonyl)phenethyl]amino}-1,3,4-thiadiazol-2-yl)-1,3-dioxo-1,3-dihydro-2-benzofuran-5-carboxamide]
98.7 | COc1ccc(CNc2nnc(NC(=O)c3ccc4c(c3)C(=O)OC4=O)s2)cc1OC [compound 16, N-{5-[(3,4-dimethoxybenzyl)amino]-1,3,4-thiadiazol-2-yl}-1,3-dioxo-1,3-dihydro-2-benzofuran-5-carboxamide]
98.6 | O=C(Nc1nnc(NCC(c2ccccc2)c2ccccc2)s1)c1ccc2c(c1)C(=O)OC2=O [compound 17, N-{5-[(2,2-diphenylethyl)amino]-1,3,4-thiadiazol-2-yl}-1,3-dioxo-1,3-dihydro-2-benzofuran-5-carboxamide]
98.3 | CCCCCCCC/C=C/CCCCCCCC(=O)Nc1nnc(NCc2ccc(S(N)(=O)=O)cc2)s1 [compound 18, (E)-N-(5-{[4-(aminosulfonyl)benzyl]amino}-1,3,4-thiadiazol-2-yl)-9-octadecenamide]
97.7 | CCCCCCCC/C=C/CCCCCCCC(=O)Nc1nnc(NCCN2CCCC2)s1 [compound 19, (E)-N-(5-{[2-(1-pyrrolidinyl)ethyl]amino}-1,3,4-thiadiazol-2-yl)-9-octadecenamide]
97.7 | O=C(Nc1nnc(NCc2ccc3c(c2)OCO3)s1)c1ccc2c(c1)C(=O)OC2=O [compound 20, N-{5-[(1,3-benzodioxol-5-ylmethyl)amino]-1,3,4-thiadiazol-2-yl}-1,3-dioxo-1,3-dihydro-2-benzofuran-5-carboxamide]
97.4 | O=C(Nc1nnc(NC2CCCc3ccccc32)s1)c1ccc2c(c1)C(=O)OC2=O (stereo not drawn) [compound 21, 1,3-dioxo-N-[5-(1,2,3,4-tetrahydro-1-naphthalenylamino)-1,3,4-thiadiazol-2-yl]-1,3-dihydro-2-benzofuran-5-carboxamide]
97.2 | COc1ccccc1C(=O)Nc1nnc(NC[C@@H]2CCC3CC2C3(C)C)s1 (stereo partly drawn) [compound 22, N-[5-({[(2R)-6,6-dimethylbicyclo[3.1.1]hept-2-yl]methyl}amino)-1,3,4-thiadiazol-2-yl]-2-methoxybenzamide]
97 | CCCCCCCC/C=C/CCCCCCCC(=O)Nc1nnc(NCCN(C)C)s1 [compound 23, (E)-N-(5-{[2-(dimethylamino)ethyl]amino}-1,3,4-thiadiazol-2-yl)-9-octadecenamide]
95.6 | O=C(Nc1nnc(NCCc2ccccc2)s1)c1ccc2c(c1)C(=O)OC2=O [compound 24, 1,3-dioxo-N-[5-(phenethylamino)-1,3,4-thiadiazol-2-yl]-1,3-dihydro-2-benzofuran-5-carboxamide]
93.9 | CC1(C)C2CC[C@@H](CNc3nnc(NC(=O)c4ccc5c(c4)C(=O)OC5=O)s3)C1C2 (stereo partly drawn) [compound 25, N-[5-({[(2R)-6,6-dimethylbicyclo[3.1.1]hept-2-yl]methyl}amino)-1,3,4-thiadiazol-2-yl]-1,3-dioxo-1,3-dihydro-2-benzofuran-5-carboxamide]
93.1 | CCOc1ccc2ccccc2c1C(=O)Nc1nnc(NCc2ccc(S(N)(=O)=O)cc2)s1 [compound 26, N-(5-{[4-(aminosulfonyl)benzyl]amino}-1,3,4-thiadiazol-2-yl)-2-ethoxy-1-naphthamide]
92.9 | CCOc1ccc2ccccc2c1C(=O)Nc1nnc(NCCCNC2CCCCC2)s1 [compound 27, N-(5-{[3-(cyclohexylamino)propyl]amino}-1,3,4-thiadiazol-2-yl)-2-ethoxy-1-naphthamide]
92.6 | CCCCCCCC/C=C/CCCCCCCC(=O)Nc1nnc(NC2CC2)s1 [compound 28, (E)-N-[5-(cyclopropylamino)-1,3,4-thiadiazol-2-yl]-9-octadecenamide]
92.4 | O=C(Nc1nnc(NC2CCCCCC2)s1)c1ccc2c(c1)C(=O)OC2=O [compound 29, N-[5-(cycloheptylamino)-1,3,4-thiadiazol-2-yl]-1,3-dioxo-1,3-dihydro-2-benzofuran-5-carboxamide]
91.8 | NS(=O)(=O)c1ccc(CNc2nnc(NC(=O)c3c(Cl)cccc3Cl)s2)cc1 [compound 30, N-(5-{[4-(aminosulfonyl)benzyl]amino}-1,3,4-thiadiazol-2-yl)-2,6-dichlorobenzamide]
91.8 | CCCCCCCC/C=C/CCCCCCCC(=O)Nc1nnc(NC2CCCCCC2)s1 [compound 31, (E)-N-[5-(cycloheptylamino)-1,3,4-thiadiazol-2-yl]-9-octadecenamide]
90.6 | NS(=O)(=O)c1ccc(CNc2nnc(NC(=O)/C=C/c3ccccc3)s2)cc1 [compound 32, (E)-N-(5-{[4-(aminosulfonyl)benzyl]amino}-1,3,4-thiadiazol-2-yl)-3-phenyl-2-propenamide]
90.1 | O=C(Nc1nnc(NCCSc2ccccc2)s1)c1ccc2c(c1)C(=O)OC2=O [compound 33, 1,3-dioxo-N-(5-{[2-(phenylsulfanyl)ethyl]amino}-1,3,4-thiadiazol-2-yl)-1,3-dihydro-2-benzofuran-5-carboxamide]
89.9 | O=C(/C=C/c1ccccc1Cl)Nc1nnc(NCC2CC2)s1 [compound 34, (E)-3-(2-chlorophenyl)-N-{5-[(cyclopropylmethyl)amino]-1,3,4-thiadiazol-2-yl}-2-propenamide]
89.7 | CC(C)c1cc(C(C)C)c(C(=O)Nc2nnc(NCc3ccc(S(N)(=O)=O)cc3)s2)c(C(C)C)c1 [compound 35, N-(5-{[4-(aminosulfonyl)benzyl]amino}-1,3,4-thiadiazol-2-yl)-2,4,6-triisopropylbenzamide]
87.6 | CC(C)c1cc(C(C)C)c(C(=O)Nc2nnc(NCCCNC3CCCCC3)s2)c(C(C)C)c1 [compound 36, N-(5-{[3-(cyclohexylamino)propyl]amino}-1,3,4-thiadiazol-2-yl)-2,4,6-triisopropylbenzamide]
87.4 | O=C(Nc1nnc(NCCCNC2CCCCC2)s1)c1c(Cl)cccc1Cl [compound 37, 2,6-dichloro-N-(5-{[3-(cyclohexylamino)propyl]amino}-1,3,4-thiadiazol-2-yl)benzamide]
87.3 | CCCCCCCC/C=C/CCCCCCCC(=O)Nc1nnc(NCC(c2ccccc2)c2ccccc2)s1 [compound 38, (E)-N-{5-[(2,2-diphenylethyl)amino]-1,3,4-thiadiazol-2-yl}-9-octadecenamide]
87.1 | O=C(Nc1nnc(NCc2cccs2)s1)c1ccc2c(c1)C(=O)OC2=O [compound 39, 1,3-dioxo-N-{5-[(2-thienylmethyl)amino]-1,3,4-thiadiazol-2-yl}-1,3-dihydro-2-benzofuran-5-carboxamide]
86.3 | O=C(Nc1nnc(NC2CCc3ccccc32)s1)c1ccc2c(c1)C(=O)OC2=O (stereo not drawn) [compound 40, N-[5-(2,3-dihydro-1H-inden-1-ylamino)-1,3,4-thiadiazol-2-yl]-1,3-dioxo-1,3-dihydro-2-benzofuran-5-carboxamide]
85.7 | CCCCCCCC/C=C/CCCCCCCC(=O)Nc1nnc(NCCc2cccs2)s1 [compound 41, (E)-N-(5-{[2-(2-thienyl)ethyl]amino}-1,3,4-thiadiazol-2-yl)-9-octadecenamide]
